Test results as given in ChEMBL document CHEMBL4052604, “Englerins: A Comprehensive Review” (J Nat Prod, 2017).

How the values were obtained:
A498 [1] = experiment: Cytotoxicity against human A498 cells assessed as reduction in cell viability; type: functional, cell-based
A498 [2] = experiment: Antiproliferative activity against human A498 cells after 48 hrs by sulphorhodamine B assay; type: functional, cell-based; conditions: A498, 48 h

Compound: CC[C@@]12C[C@@H](OC(=O)CO)[C@@](C)(O1)[C@@H]1CC[C@@H](C)[C@H]1[C@@H]2OC(=O)/C=C/c1ccccc1
- IC50 (A498 [1]): 0.95 µM

Compound: CC(C)[C@@]12C[C@@H](C(=O)OCCO)[C@@](C)(O1)[C@@H]1CC[C@@H](C)[C@H]1[C@@H]2OC(=O)/C=C/c1ccccc1
- IC50 (A498 [2]): 0.048 µM

Compound: C[C@@H]1CC[C@@H]2[C@@H]1[C@H](OC(=O)/C=C/c1ccccc1)[C@]1(C)C[C@@H](OC(=O)CO)[C@@]2(C)O1
- IC50 (A498 [1]): 4.6 µM

Compound: CC1(C)C2C[C@H](OC(=O)/C=C/c3ccccc3)C1(C)C[C@H]2OC(=O)CO (stereo not given in full)
- IC50 (A498 [1]): 35 µM

Compound: CC(C)[C@@]12C[C@@H](OC(=O)CO)[C@@](C)(O1)[C@@H]1CC[C@@H](C)[C@H]1[C@@H]2OC(=O)c1ccc(Cl)cc1Cl
- IC50 (A498 [1]): 0.28 µM
